# Laboratory results as given in US4900673A, “Mutant human angiogenin (angiogenesis factor with superior angiogenin activity) genes therefor and methods of expression” (President and Fellows of Harvard College, priority 1988, dated 1990).
# Key:
# bovine RNase A = biological target: T1, bovine RNase A (Bos taurus, UniProt P61823); details: measured under conditions employed here (Harper et al., Biochemistry 27: 219-226); cited from earlier work
# T1 sequence (P61823 27-150): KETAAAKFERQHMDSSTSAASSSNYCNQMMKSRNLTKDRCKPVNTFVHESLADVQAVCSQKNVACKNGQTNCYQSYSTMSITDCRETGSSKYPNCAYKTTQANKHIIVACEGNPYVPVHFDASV
# [1] = biological target: T2, human angiogenin variant D116N-angiogenin (Asn-116) (Homo sapiens, UniProt P03950, D140N); experiment: Cleavage of dinucleoside phosphates (HPLC method); type: biochemical; details: 30 mM Mes, pH 6.0, 30 mM NaCl, 0.1 mM dinucleoside phosphate, 37° C.
# T2 construct: made in house; host or cells: E. coli W3110
# Description: Activity toward the RNase substrates cytidyl (3'→5') adenosine (CpA) and uridyl (3'→5') adenosine (UpA) was determined using a sensitive HPLC method described previously (Shapiro et al., Biochemistry 25: 3527-3532 and 7255-7264 1986). Reaction mixture containing 30 mM 2-(N-morpholino) ethane sulfonic acid (Mes), pH 6.0, 30 mM NaCl and 0.1 mM dinucleoside phosphate were incubated with angiogenin (0.7-3.0 μM) at 37° C. Aliquots (15-20 μl) were removed at various times and injected onto an HPLC column (radial Pak C18; Waters Associates) equilibrated with 10 mM potassium phosphate, pH 7.0. Elution of reactants and products was accomplished using a linear gradient of methanol in 100 mM potassium phosphate pH 7.0 at a flow rate of 0.8 ml/minutes. Elution was monitored at 254 nm and the integrated areas of reactants and products used to calculate kcat /Km using the expression kcat /Km =1n {[S] o /[S]t }/[E]t.
# T2 sequence (P03950 25-147 D140N): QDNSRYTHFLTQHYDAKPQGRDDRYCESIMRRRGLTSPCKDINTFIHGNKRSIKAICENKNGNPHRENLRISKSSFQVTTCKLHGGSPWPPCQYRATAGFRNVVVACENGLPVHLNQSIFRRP
Structure (SMILES),kcat /Km (bovine RNase A),kcat /Km [1]
"Nc1ccn([C@@H]2O[C@H](CO)[C@@H](OP(=O)(O)OC[C@H]3O[C@@H](n4cnc5c(N)ncnc54)[C@H](O)[C@@H]3O)[C@H]2O)c(=O)n1 [CpA, cytidyl (3'→5') adenosine]",6e+06 M⁻¹ s⁻¹,–
"Nc1ncnc2c1ncn2[C@@H]1O[C@H](COP(=O)(O)O[C@H]2[C@@H](O)[C@H](n3ccc(=O)[nH]c3=O)O[C@@H]2CO)[C@@H](O)[C@H]1O [UpA, uridyl (3'→5') adenosine]",4e+06 M⁻¹ s⁻¹,0.5 M^-1 s^-l
